# Numbers after ± are expanded uncertainties.
# Details: 101.33 kPa, Liquid, Vibrating tube method
Compound,mass density (288.15 K) [kg/m3],mass density (293.15 K) [kg/m3],mass density (298.15 K) [kg/m3],mass density (303.15 K) [kg/m3],mass density (308.15 K) [kg/m3],mass density (313.15 K) [kg/m3]
"ClC(Cl)C(Cl)Cl [1,1,2,2-tetrachloroethane]",1601.45 ± 2.3,1593.65 ± 2.3,1585.87 ± 2.3,1578.07 ± 2.3,1570.27 ± 2.2,1562.45 ± 2.2
CCC(C)=O [butanone],810.262 ± 0.24,805.058 ± 0.24,799.828 ± 0.24,794.565 ± 0.24,789.273 ± 0.24,783.946 ± 0.24
CCCCCC(C)=O [2-heptanone],819.786 ± 0.65,815.497 ± 0.64,811.198 ± 0.64,806.887 ± 0.63,802.562 ± 0.63,798.222 ± 0.63

# Second part, the molecule after the results:
mass density (288.15 K) [kg/m3],mass density (293.15 K) [kg/m3],mass density (298.15 K) [kg/m3],mass density (303.15 K) [kg/m3],mass density (308.15 K) [kg/m3],mass density (313.15 K) [kg/m3],Compound
951.178 ± 0.23,946.713 ± 0.23,942.243 ± 0.23,937.767 ± 0.23,933.285 ± 0.23,928.795 ± 0.23,O=C1CCCCC1 [cyclohexanone]
1259.99 ± 0.45,1252.77 ± 0.44,1245.49 ± 0.44,1238.18 ± 0.43,1230.84 ± 0.42,1223.46 ± 0.42,"ClCCCl [1,2-dichloroethane]"
